Assay results as given in BindingDB's records for doi:10.1016/j.chembiol.2014.09.011 (Astrazeneca R&D, 2014).

What was measured:
Assay in all cases: AMPD Enzymatic Activity Assay
Settings in all cases: pH 7.4
AMP deaminase 1 = target: T1, AMP deaminase 1 (Homo sapiens, UniProt P23109)
T1 sequence (P23109 whole entry): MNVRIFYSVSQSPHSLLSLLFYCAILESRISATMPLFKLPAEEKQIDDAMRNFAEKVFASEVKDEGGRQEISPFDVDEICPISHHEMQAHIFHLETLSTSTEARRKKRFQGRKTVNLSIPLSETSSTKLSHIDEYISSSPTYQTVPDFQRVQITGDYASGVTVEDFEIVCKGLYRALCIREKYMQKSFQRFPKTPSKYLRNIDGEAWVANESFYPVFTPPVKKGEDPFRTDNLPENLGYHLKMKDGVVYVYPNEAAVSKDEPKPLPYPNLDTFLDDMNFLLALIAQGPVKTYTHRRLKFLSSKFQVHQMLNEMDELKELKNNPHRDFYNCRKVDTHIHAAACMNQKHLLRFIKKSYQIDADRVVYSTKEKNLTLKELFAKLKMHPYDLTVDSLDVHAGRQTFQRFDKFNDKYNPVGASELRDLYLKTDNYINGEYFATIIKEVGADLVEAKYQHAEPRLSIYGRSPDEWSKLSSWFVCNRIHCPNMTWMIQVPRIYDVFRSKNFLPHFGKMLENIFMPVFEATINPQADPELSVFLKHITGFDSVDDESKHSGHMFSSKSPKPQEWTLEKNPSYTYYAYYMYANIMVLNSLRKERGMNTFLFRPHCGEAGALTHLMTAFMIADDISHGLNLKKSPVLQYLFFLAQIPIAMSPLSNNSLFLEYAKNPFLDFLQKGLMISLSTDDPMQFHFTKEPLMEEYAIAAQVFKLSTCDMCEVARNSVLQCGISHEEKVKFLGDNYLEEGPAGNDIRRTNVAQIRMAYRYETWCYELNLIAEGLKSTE
Experimental: (§1) AMPD1 was added to buffer A (50 mM HEPES, 150 mM KCl, 5 mM MgCl2, and 0.5 mMglutathione [pH 7.4]) to a concentration of 10 nM. A substrate mix consistingof 2mMNADPH, 6mMa-ketoglutarate, 8mMAMP, and 15 U GDH was prepared in buffer A. Substrate mix ([…]) was added to the plate, followed by centrifugation and incubation for 1 hr. Detection was by absorbance at 340 nm following the conversion of NADPH to NADP+. Recombinant AMPD enzyme activity assays were performed in a 384-well format using the same conditions as described above, except the assay volume was […] and the AMP concentration for the AMPD2 assay was 8 mM. Different AMPD enzyme concentrations were used to have linear reactions: hAMPD1 (4 nM), hAMPD2 (38 nM), hAMPD3 (1 nM), rAMPD1 (116 nM), rAMPD2 (53 nM), rAMPD3 (31 nM), and mAMPD1 (816 nM).

AMP deaminase 2 = target: T2, AMP deaminase 2 (Rattus norvegicus, UniProt Q02356)
T2 sequence (Q02356 whole entry): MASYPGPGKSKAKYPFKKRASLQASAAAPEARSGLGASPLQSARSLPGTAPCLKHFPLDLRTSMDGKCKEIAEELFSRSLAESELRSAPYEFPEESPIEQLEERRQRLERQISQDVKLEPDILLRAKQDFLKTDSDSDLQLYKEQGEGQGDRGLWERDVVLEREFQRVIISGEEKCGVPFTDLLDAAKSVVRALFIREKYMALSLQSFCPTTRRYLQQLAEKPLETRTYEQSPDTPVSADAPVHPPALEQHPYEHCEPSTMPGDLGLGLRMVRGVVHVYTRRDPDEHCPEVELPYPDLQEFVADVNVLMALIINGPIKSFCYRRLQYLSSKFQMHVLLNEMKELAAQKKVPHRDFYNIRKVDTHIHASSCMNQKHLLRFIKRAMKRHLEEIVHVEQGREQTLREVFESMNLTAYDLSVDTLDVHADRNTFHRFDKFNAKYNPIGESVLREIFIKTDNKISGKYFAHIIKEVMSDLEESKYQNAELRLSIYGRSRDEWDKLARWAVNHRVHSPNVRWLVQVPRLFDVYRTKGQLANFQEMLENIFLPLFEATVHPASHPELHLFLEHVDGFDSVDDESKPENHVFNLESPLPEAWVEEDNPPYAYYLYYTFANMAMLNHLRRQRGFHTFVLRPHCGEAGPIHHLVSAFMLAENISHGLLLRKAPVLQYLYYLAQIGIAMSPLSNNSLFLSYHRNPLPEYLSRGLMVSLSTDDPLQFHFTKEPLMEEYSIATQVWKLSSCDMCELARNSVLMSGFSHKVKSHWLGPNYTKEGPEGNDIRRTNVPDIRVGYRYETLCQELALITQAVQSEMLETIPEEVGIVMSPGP
Experimental: as §1

AMP deaminase 3 = target: T3, AMP deaminase 3 (Rattus norvegicus, UniProt O09178)
T3 sequence (O09178 whole entry): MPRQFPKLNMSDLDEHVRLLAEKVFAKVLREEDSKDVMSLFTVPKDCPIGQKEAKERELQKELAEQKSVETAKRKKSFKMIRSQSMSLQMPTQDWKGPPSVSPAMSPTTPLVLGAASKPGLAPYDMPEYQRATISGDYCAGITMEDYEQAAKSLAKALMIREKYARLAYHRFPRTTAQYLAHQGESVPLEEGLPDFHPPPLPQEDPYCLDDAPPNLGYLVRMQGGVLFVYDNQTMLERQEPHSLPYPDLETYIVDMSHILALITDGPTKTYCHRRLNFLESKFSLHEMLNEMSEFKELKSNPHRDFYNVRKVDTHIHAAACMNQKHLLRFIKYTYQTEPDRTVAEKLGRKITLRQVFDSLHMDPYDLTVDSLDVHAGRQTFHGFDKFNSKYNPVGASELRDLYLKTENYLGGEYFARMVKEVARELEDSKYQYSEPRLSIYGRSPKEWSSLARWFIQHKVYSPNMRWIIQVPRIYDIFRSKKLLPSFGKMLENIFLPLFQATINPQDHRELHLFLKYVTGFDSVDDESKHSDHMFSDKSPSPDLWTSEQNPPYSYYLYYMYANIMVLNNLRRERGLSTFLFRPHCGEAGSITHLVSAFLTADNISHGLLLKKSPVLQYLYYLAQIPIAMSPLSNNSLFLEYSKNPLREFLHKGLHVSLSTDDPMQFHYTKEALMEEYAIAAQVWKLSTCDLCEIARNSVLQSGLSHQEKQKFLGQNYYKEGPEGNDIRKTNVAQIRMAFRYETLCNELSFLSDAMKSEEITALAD
Experimental: as §1

| IC50 (AMP deaminase 1) [µM] | IC50 (AMP deaminase 2) [µM] | IC50 (AMP deaminase 3) [µM] | SMILES |
| --- | --- | --- | --- |
| 0.038 | 0.57 | 0.4 | C[C@H](NCc1ccc(-c2ccc(C(=O)O)cn2)cc1)c1cccc2ccncc12 [6-[4-({[(1S)-1-(isoquinolin-8-yl)ethyl]amino}methyl)phenyl]pyridine-3-carboxylic acid (Compound 3)] |
| 9.2 | 32 | 44 | C[C@@H](NCc1ccc(-c2ccc(C(=O)O)cn2)cc1)c1cccc2ccncc12 [6-[4-({[(1R)-1-(isoquinolin-8-yl)ethyl]amino}methyl)phenyl]pyridine-3-carboxylic acid (Compound 2)] |
